# Source: US20090081153A1, “COMBINATION OF SYNTHETIC ANTIMICROBIAL POLYMERS AND SESQUITERPENOID COMPOUNDS” (POLYMEDIX, INC., priority 2007, published 2009)
# Experiments:
# [1] = system: E. coli ATCC 25922; assay: Inactivation kinetics, E. coli ATCC 25922 viability; format: cell-based; conditions: Compound C 31.25 μg/ml, Nerolidol 200 μM
# Source text: The surviving cell numbers (log10) were plotted against time for each treatment. The average slopes were obtained using linear regression analysis and were used to calculate D-values for each treatment using D=−1/slope.
# [2] = system: E. coli; assay: Antimicrobial disc assay against E. coli; format: cell-based; conditions: another assay, comparison with traditional antibiotics; results not shown
Compound,D-value (Decimal log reduction time) ([1]; D=−1/slope of log10 survivors vs time) [min],Surviving cell numbers ([1]; Time 0 min) [log10],Surviving cell numbers ([1]; Time 5 min) [log10],Surviving cell numbers ([1]; Time 10 min) [log10],Surviving cell numbers ([1]; Time 15 min) [log10],Surviving cell numbers ([1]; Time 30 min) [log10],Impact of sesquiterpenoids on activity against E. coli [2]
"C=CC(C)(O)CCC=C(C)CCC=C(C)C (mixture of isomers) [Nerolidol, nerolidol]",260.80,8.83,8.80,8.79,8.79,8.77,
gentamicin,,,,,,,no impact
CN[C@H](CC(C)C)C(=O)N[C@H]1C(=O)N[C@@H](CC(N)=O)C(=O)N[C@H]2C(=O)N[C@H]3C(=O)N[C@H](C(=O)N[C@H](C(=O)O)c4cc(O)cc(O)c4-c4cc3ccc4O)[C@H](O)c3ccc(c(Cl)c3)Oc3cc2cc(c3O[C@@H]2O[C@H](CO)[C@@H](O)[C@H](O)[C@H]2O[C@H]2C[C@](C)(N)[C@H](O)[C@H](C)O2)Oc2ccc(cc2Cl)[C@H]1O [vancomycin],,,,,,,no impact
